Assay results from patent US5411965A, “Use of delta opioid receptor antagonists to treat cocaine abuse” (Arizona Board of Regents, priority 1993, dated 1995).
Entries after “also recorded” stand apart in the source; their conditions may differ.

What was measured:
[1] = assay type: in vivo, rats
Text: When rats are fixed with chronically indwelling bipolar electrodes for electrical stimulation of the medial forebrain bundle, they will press levers for brief durations of stimulation. The higher the intensity of stimulation, the greater the pressing. […] These relationships plus extant theory provide the rationale for using pressing for brain stimulation as a means of assessing the reinforcing effects of drugs and assessing which drugs might affect another drug's reinforcing effects.
The particulars of the procedures used herein are briefly summarized. Further information is in Reid (cited above) and Reid et al. (Life Sciences, 52, PL67-71 (1993)). Rats were fixed with chronically indwelling bipolar electrodes. Using standard stereotaxic methods, which includes full anesthesia, the tips of the electrode were aimed to stimulate the medial forebrain bundle as it traverses the lateral hypothalamus. With the skull held in a stereotaxic instrument so that a plane between bregma and lamba was perpendicular to the shaft of the electrode, the following stereotaxic coordinates were used: 3.5 mm posterior to brema, 1.6 mm lateral to the midline, and 8.6 mm below the surface of the skull.
The apparatus of these tests was a Skinner box (24×30 ×38 cm) equipped with a lever (2.5×2 cm). Each box was fixed with electrical leads and a slip-ring apparatus that allowed the rat to be connected to the electrical stimulator for intracranial stimulation, but allowed the rat to move freely in the box.
Upon full recovery from surgery, rats were trained to press a lever in the Skinner box for electrial stimulation of the brain. The electrical stimulation was 60 Hz sine waves of 0.3 sec. The maximum intensity used was of 50 microAmps. Each lever press delivered one 0.3-sec of brain stimulation.
Just after rats learned to press the lever, the intensity of the brain stimulation was varied. Three intensities were chosen. The lowest intensity was one that was barely sufficient to sustain lever pressing. The highest intensity sustained high rates of pressing, but not the highest rates that a rat can achieve. The medium intensity was about midway between the lowest and the highest. Once a set of intensities were established for each rat, those intensities remained fixed throughout the balance of testing. […] Each rat was under a daily regimen. They were allowed to press for each of three intensities of brain stimulation for 10 minutes. […] They were allowed to press the lever under this daily regimen under level-pressing rates became stable. Then, drugs (or placebos) were administered.
The methods of Example 5 were nearly the same as those of Example 4. Rats were fixed, using standard procedures, with chronically indwelling electrodes for stimulation of the medial forebrain bundle. Subsequent to recovery from surgery, they were trained to press for brain stimulation. After each learned to press, they were put on a daily regimen. That daily regimen involved pressing for 5 min at a high intensity of brain stimulation, followed by 5-minute sessions with medium, low, low, medium and then high intensity. Intensities were set for each rat so that pressing rate for the low intensity was rather slow (the low intensity being near lower threshold for maintaining pressing), pressing for the high intensity was at a high rate, and pressing for the medium intensity was between the rate for low and high intensity. Pressing at each intensity was averaged for an index of rat's responsiveness at that intensity.

mu opioid receptor = conditions: agonist morphine in GPI; antagonist 100 or 200 nM, 15 min; read-out: Ke; cited from earlier work
kappa opioid receptor = conditions: agonist ethylketazocine in GPI; antagonist 100 or 200 nM, 15 min; read-out: Ke, EK; cited from earlier work
[2] = tested on: mouse vas deferens (MVD) and guinea pig ileum (GPI); assay: Agonist activity in MVD and GPI preparations; assay type: cell-based; conditions: in words
Description: 1. Guinea Pig Ileal Longitudinal Muscle (GPI). Ilea from guinea pigs were taken approximately 10 cm from the ileocaecal junction, and a strip of longitudinal muscle with the myenteric plexus attached was prepared by method of Rang et al., Brit. J. Pharmacol., 22, 356 (1964), the disclosure of which is incorporated by reference herein. A 1 cm portion of this strip was then mounted between two platinum electrodes placed in a 10 ml organ bath and connected to an isometric transducer. Contractions were recorded on a polygraph. […] The organ bath was maintained at 36°-37° C. The longitudinal muscle strip was allowed to equilibrate with continuous stimulation for a minimum of 90 min.
(§1) 2. Mouse Vas Deferens (MVD). […] The organ bath was maintained at 37° C.

delta opioid receptor = delta opioid receptor (Mus musculus, UniProt P32300); assay: Antagonism of DADLE in the mouse vas deferens (MVD) preparation; assay type: cell-based; conditions: in words
Description: Furthermore, the MVD responds selectively to delta opioids.
as §1

[3] = cited from earlier work

Sequence of delta opioid receptor (P32300 whole entry): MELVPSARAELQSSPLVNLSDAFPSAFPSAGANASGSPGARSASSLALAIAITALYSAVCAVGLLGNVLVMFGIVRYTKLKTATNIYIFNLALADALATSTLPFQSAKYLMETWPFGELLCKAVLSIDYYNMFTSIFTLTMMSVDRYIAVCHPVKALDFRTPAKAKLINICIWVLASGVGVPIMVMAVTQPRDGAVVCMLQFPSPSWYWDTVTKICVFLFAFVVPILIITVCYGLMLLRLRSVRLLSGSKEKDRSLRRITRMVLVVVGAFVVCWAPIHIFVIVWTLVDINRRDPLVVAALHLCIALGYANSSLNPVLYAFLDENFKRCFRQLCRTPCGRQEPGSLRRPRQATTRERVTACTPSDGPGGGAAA

In the case of `CC(N)Cc1ccccc1` (centres unmarked) [Amphetamine, phenylisopropylamine, reference compound], the “pressing for brain stimulation, amphetamine alone” value ([1]; rat, in vivo) is reported as “produced an increment in pressing; also recorded: produced increased pressing compared to pressing under the influence of placebo”.

For `O=C1C(=Cc2ccccc2)C[C@@]2(O)[C@H]3Cc4ccc(O)c5c4[C@@]2(CCN3CC2CC2)[C@H]1O5` [BNTX, 7-benzylidenenaltrexone], the “pressing for brain stimulation, BNTX plus cocaine” value ([1]; rat, in vivo) was “reduced cocaine's (5 mg/kg) facilitation of pressing for rewarding brain stimulation in a fashion similar to the reduction observed for NTI; also recorded: extraordinarily effective in blocking cocaine's salient effects”.

In the case of `Cn1c2c(c3ccccc31)C[C@@]1(O)[C@H]3Cc4ccc(O)c5c4[C@@]1(CCN3CC1CC1)[C@H]2O5` [Compound 2], the Kb (mu opioid receptor) is given as 12.5 nM and the Kb (kappa opioid receptor) is given as 22.2 nM.

In the case of `Oc1ccc2c3c1O[C@H]1c4[nH]c5ccc(F)cc5c4C[C@@]4(O)[C@@H](C2)N(CC2CC2)CC[C@]314` [Compound 3], the Kb (mu opioid receptor) is listed as 61.7 nM and the Kb (kappa opioid receptor) is listed as 46.2 nM.

For `COc1ccc2[nH]c3c(c2c1)C[C@@]1(O)[C@H]2Cc4ccc(O)c5c4[C@@]1(CCN2CC1CC1)[C@H]3O5` [Compound 4], the Kb (mu opioid receptor) is given as 63 nM and the Kb (kappa opioid receptor) is given as 12.6 nM.

For `Cc1ccc2[nH]c3c(c2c1)C[C@@]1(O)[C@H]2Cc4ccc(O)c5c4[C@@]1(CCN2CC1CC1)[C@H]3O5` [Compound 5], the Kb (mu opioid receptor) is given as over 160 nM and the Kb (kappa opioid receptor) is given as over 250 nM.

For `O=[N+]([O-])c1ccc2[nH]c3c(c2c1)C[C@@]1(O)[C@H]2Cc4ccc(O)c5c4[C@@]1(CCN2CC1CC1)[C@H]3O5` [Compound 6], the Kb (mu opioid receptor) is listed as 92 nM and the Kb (kappa opioid receptor) is listed as at least 200 nM.

With `CN1CC[C@]23c4c5ccc(O)c4O[C@H]2c2[nH]c4ccccc4c2C[C@@]3(O)[C@H]1C5` [Compound 7] the agonist activity [2] was “exhibited partial agonist activity” and the “antagonism of the effect of the delta agonist DADLE” value (delta opioid receptor) was “inactive”.

In the case of `Oc1ccc2c3c1O[C@H]1c4oc5ccccc5c4C[C@@]4(O)[C@@H](C2)N(CC2CC2)CC[C@]314` [Compound 8, 17-(cyclopropylmethyl)-6,7-dehydro-3,14β-dihydroxy-4,5α-epoxy-6,7-2',3'-benzo[b]furanomorphinan], the Kb (mu opioid receptor) is listed as 30.8 nM, the “delta antagonist potency and selectivity” value (delta opioid receptor) is listed as “less potent and less selective than 1 as a delta antagonist, nevertheless retains substantial delta antagonist activity” and the Kb (kappa opioid receptor) is listed as 50.8 nM.

In the case of `Oc1ccc2[nH]c3c(c2c1)C[C@@]1(O)[C@H]2Cc4ccc(O)c5c4[C@@]1(CCN2CC1CC1)[C@H]3O5` [Compound 9], the Kb (mu opioid receptor) is given as 27.2 nM and the Kb (kappa opioid receptor) is given as 68.5 nM.

For `Oc1ccc2c3c1O[C@H]1c4[nH]c5cccc(F)c5c4C[C@@]4(O)[C@@H](C2)N(CC2CC2)CC[C@]314` [Compound 10], the Kb (mu opioid receptor) is listed as over 125 nM and the Kb (kappa opioid receptor) is listed as over 170 nM.

In the case of `Oc1ccc2c3c1O[C@H]1c4[nH]c5c(F)cccc5c4C[C@@]4(O)[C@@H](C2)N(CC2CC2)CC[C@]314` [Compound 11], the Kb (mu opioid receptor) is listed as 5.3 nM and the Kb (kappa opioid receptor) is listed as over 330 nM.

For `Cc1cccc2c3c([nH]c12)[C@@H]1Oc2c(O)ccc4c2[C@@]12CCN(CC1CC1)[C@H](C4)[C@]2(O)C3` [Compound 13], the Kb (mu opioid receptor) is given as 19.1 nM and the Kb (kappa opioid receptor) is given as over 330 nM.

In the case of `COc1cccc2c3c([nH]c12)[C@@H]1Oc2c(O)ccc4c2[C@@]12CCN(CC1CC1)[C@H](C4)[C@]2(O)C3` [Compound 14], the Kb (mu opioid receptor) is given as 35 nM.

For `Oc1ccc2c3c1O[C@H]1c4nc5ccccc5nc4C[C@@]4(O)[C@@H](C2)N(CC2CC2)CC[C@]314` [Compound 16], the Kb (mu opioid receptor) is given as 6.1 nM, the “delta antagonist potency and selectivity” value (delta opioid receptor) is given as “A similar relationship was observed” and the Kb (kappa opioid receptor) is given as 13.4 nM.

For `Oc1ccc2c3c1O[C@H]1c4nc5ccccc5cc4C[C@@]4(O)[C@@H](C2)N(CC2CC2)CC[C@]314` [Compound 17], the Kb (mu opioid receptor) is listed as 11.3 nM, the “delta antagonist potency and selectivity” value (delta opioid receptor) is listed as “A similar relationship was observed” and the Kb (kappa opioid receptor) is listed as 16.3 nM.

For `CNC(C)Cc1ccc2c(c1)OCO2` (centres unmarked) [MDMA, N-monomethyl-3,4-methylenedioxyphenylisopropylamine, reference compound], the conditioned place preference ([3]; drug alone, literature) is listed as “produces a conditioned place preference among rats”, the “mean presses at High intensity, MDMA plus Placebo” value ([1]; High intensity of intracranial stimulation, six rats) is listed as 922 presses per ten minutes and the “mean presses at Low intensity, MDMA plus Placebo” value ([1]; Low intensity of intracranial stimulation, six rats) is listed as 288 presses per ten minutes. The “mean presses at Medium intensity, MDMA plus Placebo” value ([1]; Medium intensity of intracranial stimulation, six rats) was 563 presses per ten minutes, the “pressing for brain stimulation, MDMA alone” value ([1]; in words) was “increased pressing” and the “average increase in pressing, MDMA” value ([1]; low intensity, factor) was “four times”.

For `O=C1CC[C@@]2(O)[C@H]3Cc4ccc(O)c5c4[C@@]2(CCN3CC2CC2)[C@H]1O5` [naltrexone], the conditioned place aversion ([3]; given alone, literature) is given as “condition place aversions”, the “effect on MDMA's conditioned place preference” value ([3]; rat, in vivo) is given as “attenuated but not blocked” and the “effect on cocaine's conditioned place preference” value ([3]; rat, in vivo) is given as “attenuate cocaine's reinforcing properties”.
